Experiments:
[1] = test system: adenosine uptake into HeLa cells; experiment: [3H]Adenosine uptake assay; type: cell-based; details: Homo sapiens; accumulation of [3H]adenosine into HeLa cells; concentration range 10 μM to 0.032 nM; read-out: ADU inhibition IC50
Procedure, shortened: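 HeLa cells (25 000/well), plated overnight, were preincubated 30 minutes at ambient temperature with compound in HBSS + 5% FBS. Ten-point titrations ran from 10 μM to 0.032 nM final. [3H]adenosine was added from a 500 nM solution for 60 minutes, and uptake was measured by scintillation proximity counting; IC50 came from a 4-parameter fit.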

[2] = target: T1, BTK enzyme (recombinant full-length BTK, hBTK) (Homo sapiens, UniProt Q06187); experiment: Btk enzyme activity assay (LANCE TR-FRET); type: biochemical; details: 50 pM hBTK, 25 μM ATP, 60 minute compound and enzyme incubation, concentration range 1 μM to 0.017 nM, read-out: BTK binding IC50
T1 construct: recombinant protein from baculovirus-transfected S 19 cells: full-length BTK, 6 HIS-tag cleaved; 6 HIS-tag (cleaved yes); made in house
T1 sequence (Q06187 whole entry): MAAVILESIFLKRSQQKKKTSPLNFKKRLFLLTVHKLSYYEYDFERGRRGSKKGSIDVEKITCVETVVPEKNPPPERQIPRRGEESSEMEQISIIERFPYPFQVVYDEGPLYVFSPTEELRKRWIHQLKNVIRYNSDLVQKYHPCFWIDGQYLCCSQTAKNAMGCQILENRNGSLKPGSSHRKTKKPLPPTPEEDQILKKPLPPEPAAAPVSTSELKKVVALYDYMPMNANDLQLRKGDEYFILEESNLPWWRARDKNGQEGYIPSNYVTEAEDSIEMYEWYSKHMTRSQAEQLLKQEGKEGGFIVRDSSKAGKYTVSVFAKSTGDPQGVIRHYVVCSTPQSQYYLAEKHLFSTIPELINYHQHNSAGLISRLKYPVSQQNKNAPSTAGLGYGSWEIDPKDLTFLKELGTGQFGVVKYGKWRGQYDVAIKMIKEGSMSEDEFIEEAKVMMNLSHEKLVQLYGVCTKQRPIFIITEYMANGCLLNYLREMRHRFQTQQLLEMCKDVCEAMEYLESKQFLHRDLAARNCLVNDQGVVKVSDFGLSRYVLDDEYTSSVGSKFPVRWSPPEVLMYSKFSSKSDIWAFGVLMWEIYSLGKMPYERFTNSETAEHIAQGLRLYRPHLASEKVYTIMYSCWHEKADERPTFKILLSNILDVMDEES

SMILES	IC50 [1] [nM]	IC50 [2] [nM]
CCOc1cc(C(=O)Nc2cc(C(F)(F)F)n(C)n2)ccc1-c1nc([C@@H]2CC[C@H](C)N(C(=O)[C@@H](C)O)C2)n2ccnc(N)c12 [Example 109, 4-(8-amino-3-{(3R,6S)-1-[(2R)-2-hydroxypropanoyl]-6-methylpiperidin-3-yl}imidazo[1,5-a]pyrazin-1-yl)-3-ethoxy-N-[1-methyl-5-(trifluoromethyl)-1H-pyrazol-3-yl]benzamide]	3340	0.403
Nc1c(N[C@H]2C[C@H](c3nc(-c4ccc(C(=O)Nc5cc(C(F)(F)F)ccn5)cc4)c4c(N)nccn43)C2)c(=O)c1=O [Example 112, 4-(8-amino-3-{trans-3-[(2-amino-3,4-dioxocyclobut-1-en-1-yl)amino]cyclobutyl}imidazo[1,5-a]pyrazin-1-yl)-N-[4-(trifluoromethyl)pyridin-2-yl]benzamide]	2270	0.254
CNc1c(N[C@H]2C[C@H](c3nc(-c4ccc(C(=O)Nc5cc(C(F)(F)F)ccn5)cc4)c4c(N)nccn43)C2)c(=O)c1=O [Example 113, 4-[8-amino-3-(trans-3-{[2-(methylamino)-3,4-dioxocyclobut-1-en-1-yl]amino}cyclobutyl)imidazo[1,5-a]pyrazin-1-yl]-N-[4-(trifluoromethyl)pyridin-2-yl]benzamide]	2940	0.166
Nc1nccn2c1c(-c1ccc(C(=O)Nc3cc(C(F)(F)F)ccn3)cc1)nc2[C@H]1C[C@H](Nc2c(NC3CC3)c(=O)c2=O)C1 [Example 114, 4-[8-amino-3-(trans-3-{[2-(cyclopropylamino)-3,4-dioxocyclobut-1-en-1-yl]amino}cyclobutyl)imidazo[1,5-a]pyrazin-1-yl]-N-[4-(trifluoromethyl)pyridin-2-yl]benzamide]	925	0.327

The next lines start with the values.

IC50 [1] [nM]	IC50 [2] [nM]	SMILES
1990	0.479	CCOc1cc(C(=O)Nc2cc(C(F)(F)F)ccn2)cc(F)c1-c1nc([C@H]2CN(C(=O)[C@@H](C)O)[C@@H](C)CO2)n2c(Cl)cnc(N)c12 [Example 107, 4-(8-amino-5-chloro-3-{(2R,5S)-4-[(2R)-2-hydroxypropanoyl]-5-methylmorpholin-2-yl}imidazo[1,5-a]pyrazin-1-yl)-3-ethoxy-5-fluoro-N-[4-(trifluoromethyl)pyridin-2-yl]benzamide]
1320	1.8	CCOc1cc(C(=O)Nc2cc(C(F)(F)F)ccn2)ccc1-c1nc([C@H]2CN(C3CCS(=O)(=O)CC3)[C@@H](C)CO2)n2c(Cl)cnc(N)c12 [Example 108, 4-{8-amino-5-chloro-3-[(2R,5S)-4-(1,1-dioxidotetrahydro-2H-thiopyran-4-yl)-5-methylmorpholin-2-yl]imidazo[1,5-a]pyrazin-1-yl}-3-ethoxy-N-[4-(trifluoromethyl)pyridin-2-yl]benzamide]
533	0.674	CCc1cnc(N)c2c(-c3ccc(C(=O)Nc4cc(C(F)(F)F)ccn4)cc3F)nc([C@H]3CN(C(=O)C4CC4)[C@@H](C)CO3)n12 [Example 110, 4-{8-amino-3-[(2R,5S)-4-(cyclopropylcarbonyl)-5-methylmorpholin-2-yl]-5-ethylimidazo[1,5-a]pyrazin-1-yl}-3-fluoro-N-[4-(trifluoromethyl)pyridin-2-yl]benzamide]
982	0.274	CCOc1cc(C(=O)Nc2cc(C(F)(F)F)ccn2)ccc1-c1nc([C@@H]2CC[C@H](C)N(C(=O)[C@@H](C)O)C2)n2c(Cl)cnc(N)c12 [Example 111, 4-(8-amino-5-chloro-3-{(3R,6S)-1-[(2R)-2-hydroxypropanoyl]-6-methylpiperidin-3-yl}imidazo[1,5-a]pyrazin-1-yl)-3-ethoxy-N-[4-(trifluoromethyl)pyridin-2-yl]benzamide]
